Test results reported in patent publication US20230372375A1, “SGLT-2 INHIBITOR SARCOSINE CO-CRYSTAL, PREPARATION METHOD THEREFOR AND USE THEREOF” (Beijing Creatron Institute of Pharmaceutical Research Co. …, priority 2020, published 2023).

Tests used:
[1] = Influencing factors test (physical and chemical stability) of canagliflozin crystal forms, Test Example 2; assay type: physicochemical; set-up: Impurity RRT0.73 content / Impurity RRT0.93 content / Impurity RRT1.12 content / Impurity RRT1.17 content / Impurity RRT2.25 content / Impurity RRT2.28 content / Impurity RRT0.57 content / Impurity RRT0.67 content: unit not given here
Protocol: The canagliflozin-sarcosine cocrystal and canagliflozin hemihydrate (original crystal form) were tested for influencing factors.

[2] = 1 g cannot be dissolved in 10000 ml; cited from earlier work
[3] = Directly exposed at 60° C. for 10 days
[4] = Directly exposed at 5000 LX for 10 days
[5] = Directly exposed at RH75% for 10 days

Cc1ccc([C@@H]2O[C@H](CO)[C@@H](O)[C@H](O)[C@H]2O)cc1Cc1ccc(-c2ccc(F)cc2)s1.O [canagliflozin hemihydrate]
Impurity RRT0.57 content ([1]; 0 day): 0.01 | Impurity RRT0.67 content ([1]; 0 day): 0.01 | Impurity RRT0.93 content ([1]; 0 day): 0.01 | Impurity RRT1.17 content ([1]; 0 day): 0.01 | Impurity RRT2.25 content ([1]; 0 day): 0.01 | Impurity RRT2.28 content ([1]; 0 day): 0.01 | Number of impurities ([1]; 0 day): 6 | Property (appearance) ([1]; 0 day): White | Total content of impurities ([1]; 0 day): 0.06% | Impurity RRT0.57 content [1, 3]: 0.01 | Impurity RRT0.67 content [1, 3]: 0.01 | Impurity RRT0.93 content [1, 3]: 0.01 | Impurity RRT1.17 content [1, 3]: 0.01 | Impurity RRT2.25 content [1, 3]: 0.01 | Impurity RRT2.28 content [1, 3]: 0.01 | Number of impurities [1, 3]: 6 | Property (appearance) [1, 3]: White | Total content of impurities [1, 3]: 0.05% | Impurity RRT0.57 content [1, 4]: 0.02 | Impurity RRT0.73 content [1, 4]: 0.01 | Impurity RRT0.93 content [1, 4]: 0.01 | Impurity RRT1.12 content [1, 4]: 0.01 | Impurity RRT1.17 content [1, 4]: 0.01 | Impurity RRT2.25 content [1, 4]: 0.01 | Impurity RRT2.28 content [1, 4]: 0.01 | Number of impurities [1, 4]: 7 | Property (appearance) [1, 4]: White | Total content of impurities [1, 4]: 0.08% | Impurity RRT0.57 content [1, 5]: 0.01 | Impurity RRT0.67 content [1, 5]: 0.01 | Impurity RRT0.93 content [1, 5]: 0.02 | Impurity RRT1.17 content [1, 5]: 0.01 | Impurity RRT2.25 content [1, 5]: 0.01 | Impurity RRT2.28 content [1, 5]: 0.01 | Number of impurities [1, 5]: 6 | Property (appearance) [1, 5]: White | Total content of impurities [1, 5]: 0.07% | Weight gained ([1]; high humidity of RH75% for 10 days): about 2.1% | Weight lost ([1]; high temperature of 60° C. for 10 days): about 1.0% | New impurities detected (number) ([1]; light irradiation of 5000LX for 10 days): 1 | Solubility in water [2]: almost insoluble in water
